From US6407073B1, “Use of coumarin derivatives for the treatment of digestive tract disorders” (Bio-Monde Preparations Limited, priority 1997, dated 2002)
Marks after values point to notes of the source that are not given here.

Key:
[1] = test system: mice with AAP-induced hepatotoxicity; assay: Survival of mice with acetaminophen (AAP)-induced hepatotoxicity; assay type: in vivo, CBA/H Zgr inbred mice; details: for No of dead mice/Total No of mice / Mortality (%): 48 hours; for mortality in comparison with control mice given saline: 250 mg/kg
Description: The hepatoprotective effect of a composition in accordance with the invention was investigated in mice with acetaminophen (paracetamol) induced hepatotoxicity.
CBA/H Zgr inbred mice were raised in an animal colony unit. Mice of both sexes aged 3 to 4 month were used in the experiments. Mice were maintained under standard laboratory conditions, fed with commercially available murine food pellets and allowed water ad libitum.
The procedure of Guarner was followed (see Hepatology 1988; 3:248-53). To induce hepatic drug-metabolising enzymes, mice were given phenobarbitone-sodium in drinking water for 7 days (0.3 g/L). Thereafter, mice were fasted overnight. […]
The above ingredients were dissolved in phosphate buffered saline (PBS) to which several drops of Tween 20™ (polyoxyethylene 20 sorbitan monolaurate) were added (50 μl/ml). The resulting white milk suspension was administered to mice intraperitoneally.
At the same time, control animals were given 0.5 ml of pyrogen-free saline to which several drops of Tween 20™ (50 μl/ml) were added.
Acetaminophen, dissolved in heated PBS, was given intragastrically, by stomach tube, in a volume of 0.5 ml. Animals were allowed food 4 hours later. Mortality of mice was followed for 48 hours, as previous results have shown that control mice (given saline rather than the composition before acetaminophen) either die within this period or fully recover and survive indefinitely.
Differences in survival between groups of mice were compared by χ^2-test. Plasma AST and ALT concentrations are expressed as means±SEM and differences between groups were compared by Student's t-test.

[2] = test system: mice with AAP-induced hepatotoxicity; assay: Plasma aminotransferase levels in mice with AAP-induced hepatotoxicity; assay type: in vivo, CBA/H Zgr inbred mice
Description: Plasma aspartate aminotransferase (AST) and alanine aminotransferase (ALT) were measured 24 hours after the administration of acetaminophen, because it has been observed that the levels of AST and ALT are at their peak values at this time. Mice were given 250 units of […] intraoeritoneally 15 minutes before bleeding. Blood was obtained by puncture of medial orbital angle using glass capillary tubes. Plasma was stored at −20° C. until aminotransferase determination, which was carried out using standard laboratory techniques (see Expert Panel on Enzymes, Committee on Standards, Clin. Chem. Biochem. 1977; 15: 39-51 and Clin. Chem. Acta. 1980; 105: 147F-54F). Differences in survival between groups of mice were compared by χ^2-test. Plasma AST and ALT concentrations are expressed as means±SEM and differences between groups were compared by Student's t-test. The effect of a Compound of the invention (Hymecromone) was investigated on plasma aminotransferase levels in mice with AAP-induced hepatotoxicity. Hymecromone (250 mg/kg) or a control of saline was given to mice 30 minutes before administration of acetaminophen (220 mg/kg). Plasma AST and ALT were measured 24 hours after acetaminophen administration. […] As shown, in comparison with normal mice, the administration of acetaminophen increased AST and ALT by approximately 19 and 100 times, respectively.

[3] = Table 1, Hymecromone 50 mg/kg i.p. 30 minutes before AAP 300 mg/kg
[4] = Table 1, Hymecromone 250 mg/kg i.p. 30 minutes before AAP 300 mg/kg, P < 0.01 vs saline
[5] = Table 2, Hymecromone 50 mg/kg i.p. 30 minutes before AAP 250 mg/kg
[6] = Table 2, Hymecromone 250 mg/kg i.p. 30 minutes before AAP 250 mg/kg, P < 0.001 vs saline
[7] = Table 3, Hymecromone 250 mg/kg i.p. 30 minutes before AAP 250 mg/kg, P < 0.001 vs saline
[8] = Hymecromone 250 mg/kg, AAP 220 mg/kg, P<0.005
[9] = plasma, Hymecromone 250 mg/kg 30 minutes before AAP 220 mg/kg, 24 hours after AAP, mean, n = 16, P < 0.005 vs saline

Cc1cc(=O)oc2cc(O)ccc12 [Hymecromone, 7-hydroxy-4-methylcoumarin]
No of dead mice/Total No of mice ([1]; Table 1, Hymecromone 10 mg/kg i.p. 30 minutes before AAP 300 mg/kg intragastrically): 12/12 | Mortality (%) ([1]; Table 1, Hymecromone 10 mg/kg i.p. 30 minutes before AAP 300 mg/kg): 100% | Mortality (%) [1, 3]: 92% | No of dead mice/Total No of mice [1, 3]: 11/12 | Mortality (%) [1, 4]: 29% | No of dead mice/Total No of mice [1, 4]: 2/7 | mortality in comparison with control mice given saline ([1]; Table 1 experiment, P<0.01): significantly reduced the mortality | Mortality (%) [1, 5]: (93) % | No of dead mice/Total No of mice [1, 5]: 9/13 | Mortality (%) [1, 6]: (0)^c % | No of dead mice/Total No of mice [1, 6]: 0/13 | Mortality (%) [1, 7]: (0)^c % | No of dead mice/Total No of mice [1, 7]: 0/15 | mortality in comparison with control mice given saline ([1]; two further experiments (Tables 2 and 3), P<0.001): statistically significantly reduced the mortality | reduction of the increase of ALT in comparison with control mice pretreated with saline [2, 8]: three times | reduction of the increase of AST in comparison with control mice pretreated with saline [2, 8]: five times | ALT [2, 9]: 776 U/L | AST [2, 9]: 267 U/L
